Assay results published in paper PMC7435819, “Towards the Inhibition of Protein–Protein Interactions (PPIs) in STAT3: Insights into a New Class of Benzothiadiazole Derivatives” (Molecules, 2020).
Read-outs that look alike come from different tables or passages of the source.

Tests used:
STAT1 = target: T1, STAT1 (Homo sapiens, UniProt P42224); assay: AlphaScreen-based competitive binding assay, STAT1 vs FITC-GpYDKPHVL; conditions: read-out: STAT1 inhibition: IC50
T1 sequence (P42224 1-750): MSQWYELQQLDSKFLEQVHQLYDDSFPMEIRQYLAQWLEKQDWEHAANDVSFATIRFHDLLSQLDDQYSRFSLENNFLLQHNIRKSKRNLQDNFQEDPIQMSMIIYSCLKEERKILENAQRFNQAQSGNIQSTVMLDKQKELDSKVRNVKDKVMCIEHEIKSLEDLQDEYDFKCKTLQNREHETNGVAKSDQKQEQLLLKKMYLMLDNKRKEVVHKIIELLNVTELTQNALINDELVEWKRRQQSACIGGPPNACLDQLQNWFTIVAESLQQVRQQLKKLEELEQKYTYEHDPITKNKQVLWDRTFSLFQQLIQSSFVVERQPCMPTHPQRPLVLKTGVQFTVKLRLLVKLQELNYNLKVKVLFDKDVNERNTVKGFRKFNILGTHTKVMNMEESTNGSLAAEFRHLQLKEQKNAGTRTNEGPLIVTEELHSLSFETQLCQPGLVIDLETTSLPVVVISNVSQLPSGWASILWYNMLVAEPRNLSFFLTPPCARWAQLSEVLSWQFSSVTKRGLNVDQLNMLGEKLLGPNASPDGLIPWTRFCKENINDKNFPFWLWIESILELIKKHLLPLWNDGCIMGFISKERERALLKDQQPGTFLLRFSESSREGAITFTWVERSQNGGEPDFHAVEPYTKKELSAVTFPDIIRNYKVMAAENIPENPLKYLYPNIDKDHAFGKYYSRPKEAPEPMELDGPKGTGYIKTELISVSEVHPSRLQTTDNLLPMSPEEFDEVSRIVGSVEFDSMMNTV
Excerpt: (§1) AlphaScreen is an in vitro competitive binding test used to identify compounds that are able to inhibit the binding of proteins containing an SH2 domain to their corresponding phosphopeptides (5-carboxyfluorescein (FITC)-GpYLPQTV for STAT3 and FITC-GpYDKPHVL for STAT1) (Table 2).
AlphaScreen is a bead-based non-radioactive assay system for the detection of biomolecular interactions in a microtiter plate format. The binding of biological partners brings donor and acceptor beads into close proximity and, as a result, a fluorescent signal between 520 and 620 nm was produced. The AlphaScreen-based assays were performed in a final reaction volume of 25 μL of the assay buffer containing 10 mM HEPES–NaOH (pH 7.4), 50 mM NaCl, 1 mM EDTA (pH 8.0), 0.1% NP-40, and 10 ng/μL bovine serum albumin (BSA) in a 96-well microtiter plate at 25 °C. The pTyr peptide probes used in this study were 5-carboxyfluorescein (FITC)-GpYLPQTV for STAT3 and (FITC)-GpYDKPHVL for STAT1. Plasmid construction and protein expression were performed as previously described; the experimental method is briefly summarized as follows. Considering that the expression of the full-length protein is troublesome, a truncated form of STAT3 (136-705) was constructed and chromatographically purified (AKTA FPLC system; GE Healthcare Bio-Sciences, Piscataway, NJ, USA). […]

Grb2 = Grb2 (Homo sapiens, UniProt P62993); assay: AlphaScreen-based assay, Grb2 (other SH2 domain-containing protein); type: binding; conditions: 30 µM
Chain of Grb2 (P62993 whole entry, species assumed, the tested form may be a part): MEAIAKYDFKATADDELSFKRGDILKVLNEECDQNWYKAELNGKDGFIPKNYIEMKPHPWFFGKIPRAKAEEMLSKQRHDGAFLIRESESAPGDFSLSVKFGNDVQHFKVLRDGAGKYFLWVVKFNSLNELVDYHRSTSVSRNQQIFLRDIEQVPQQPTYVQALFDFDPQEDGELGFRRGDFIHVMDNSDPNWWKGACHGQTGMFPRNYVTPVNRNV
Procedure: as §1
(§2) Firstly, 75 nM of each SH2-containing protein were incubated with the test compound (at the following concentrations: 1, 3, 10, and 30 µM) for 15 min. Each protein sample was then incubated for 90 min with 50 nM of its corresponding FITC-pTyr peptide and simultaneously mixed with streptavidin-coated donor beads and anti-FITC acceptor beads before detection at 570 nm using EnVison Xcite (PerkinElmer, Waltham, MA, USA).

STAT3 Cys712A = target: T2, STAT3 Cys712A (Homo sapiens, UniProt P40763, C712A); assay: AlphaScreen-based assay, STAT3 single-cysteine mutant Cys712A; type: binding; conditions: for % of control, STAT3 AlphaScreen: Cys712A
T2 construct: made in house
T2 sequence (P40763 whole entry C712A): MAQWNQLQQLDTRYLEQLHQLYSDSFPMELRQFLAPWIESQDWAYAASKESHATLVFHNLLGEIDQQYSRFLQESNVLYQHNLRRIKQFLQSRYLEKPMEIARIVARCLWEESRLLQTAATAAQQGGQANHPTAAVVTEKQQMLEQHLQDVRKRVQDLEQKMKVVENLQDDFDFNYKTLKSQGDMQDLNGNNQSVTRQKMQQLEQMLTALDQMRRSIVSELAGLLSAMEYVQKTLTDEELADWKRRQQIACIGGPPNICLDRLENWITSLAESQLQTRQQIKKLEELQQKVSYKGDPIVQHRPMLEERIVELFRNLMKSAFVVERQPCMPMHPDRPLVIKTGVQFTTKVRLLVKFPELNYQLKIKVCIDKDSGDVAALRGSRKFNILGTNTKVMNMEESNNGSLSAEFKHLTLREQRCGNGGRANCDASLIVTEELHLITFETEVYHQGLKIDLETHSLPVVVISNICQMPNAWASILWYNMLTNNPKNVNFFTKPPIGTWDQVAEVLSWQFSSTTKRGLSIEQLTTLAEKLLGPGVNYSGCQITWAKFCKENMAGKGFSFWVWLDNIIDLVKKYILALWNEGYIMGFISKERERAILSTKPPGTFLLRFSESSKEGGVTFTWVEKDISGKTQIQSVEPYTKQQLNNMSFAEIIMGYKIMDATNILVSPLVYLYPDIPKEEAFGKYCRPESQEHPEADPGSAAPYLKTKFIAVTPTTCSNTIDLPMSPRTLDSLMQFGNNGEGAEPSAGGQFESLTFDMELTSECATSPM
Procedure: (§3) Furthermore, to gain insight into the activity of compound 1, its interaction with the cysteine residues located in the vicinities of the SH2 domain (Figure 3) was investigated and evaluated by an AlphaScreen-based assay using different mutants (Table 3).
(§4) The same procedure was used to evaluate compound 1 activity versus STAT3 single-cysteine-residue mutants (Cys468A, Cys542A, Cys550A, Cys687A, and Cys712A). Briefly, 3 µL of compound 1 in DMSO (at 0.3, 1, 3, 10 and 30 µM concentration) were premixed with 1 µL of L-Cys in PBS and 16 µL of an AlphaScreen buffer. Then, the mixture was immediately (<5 min) mixed with the STAT3 mutant solution before adding the FITC-peptide.

STAT3 = target: T3, STAT3 (Homo sapiens, UniProt P40763); assay: AlphaScreen-based competitive binding assay, STAT3 SH2 domain vs FITC-GpYLPQTV; conditions: for % of control, STAT3 AlphaScreen: WT
T3 construct: a truncated form of STAT3 (136-705) was constructed and chromatographically purified; made in house
T3 sequence (P40763 136-705): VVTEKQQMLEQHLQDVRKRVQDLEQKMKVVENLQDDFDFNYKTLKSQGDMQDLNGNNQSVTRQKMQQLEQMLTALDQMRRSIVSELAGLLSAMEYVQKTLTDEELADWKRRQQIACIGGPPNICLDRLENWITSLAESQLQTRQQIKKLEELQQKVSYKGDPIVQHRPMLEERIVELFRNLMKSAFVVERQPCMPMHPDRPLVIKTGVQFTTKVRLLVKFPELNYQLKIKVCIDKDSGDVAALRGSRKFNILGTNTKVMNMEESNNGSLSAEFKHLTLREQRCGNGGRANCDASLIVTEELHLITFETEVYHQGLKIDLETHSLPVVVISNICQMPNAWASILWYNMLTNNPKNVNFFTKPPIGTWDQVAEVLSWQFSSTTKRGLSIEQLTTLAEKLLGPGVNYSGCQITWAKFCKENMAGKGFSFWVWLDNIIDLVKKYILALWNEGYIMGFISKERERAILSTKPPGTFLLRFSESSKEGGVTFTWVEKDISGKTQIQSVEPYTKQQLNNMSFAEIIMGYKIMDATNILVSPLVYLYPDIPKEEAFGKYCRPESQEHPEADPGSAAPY
Excerpt: as §1
AlphaScreen is a bead-based non-radioactive assay system for the detection of biomolecular interactions in a microtiter plate format. The binding of biological partners brings donor and acceptor beads into close proximity and, as a result, a fluorescent signal between 520 and 620 nm was produced. The AlphaScreen-based assays were performed in a final reaction volume of 25 μL of the assay buffer containing 10 mM HEPES–NaOH (pH 7.4), 50 mM NaCl, 1 mM EDTA (pH 8.0), 0.1% NP-40, and 10 ng/μL bovine serum albumin (BSA) in a 96-well microtiter plate at 25 °C. The pTyr peptide probes used in this study were 5-carboxyfluorescein (FITC)-GpYLPQTV for STAT3 and (FITC)-GpYDKPHVL for STAT1. Plasmid construction and protein expression were performed as previously described; the experimental method is briefly summarized as follows. Considering that the expression of the full-length protein is troublesome, a truncated form of STAT3 (136-705) was constructed and chromatographically purified (AKTA FPLC system; GE Healthcare Bio-Sciences, Piscataway, NJ, USA). The soluble STAT3 fraction was loaded on a HisTrap™ column (GE Healthcare Bio-Sciences) and eluted with an imidazole gradient (50 mM Tris–HCl pH 7.4, 300 mM NaCl, 0.2 mM EDTA, 0.1% (w/v) NP-40, 5 mM β-mercaptoethanol, 10% (v/v) glycerol, and 10–300 mM imidazole). An SDS-PAGE stained with Coomassie Brilliant Blue (CBB) was performed to check the purity of the protein (see Figure S71). Subsequently, the protein was dialyzed (10 mM HEPES-NaOH pH 7.4, 50 mM NaCl, 10 mM β-mercaptoethanol, 0.1 mM EGTA, 0.02% (w/v) NP-40, 0.2 mM phenylmethylsulphonyl fluoride (PMSF), and 10% (v/v) glycerol).
as §2

STAT3 Cys542A = target: T4, STAT3 Cys542A (Homo sapiens, UniProt P40763, C542A); assay: AlphaScreen-based assay, STAT3 single-cysteine mutant Cys542A; type: binding; conditions: for % of control, STAT3 AlphaScreen: Cys542A
T4 construct: a truncated form of STAT3 (136-705) was constructed and chromatographically purified; made in house
T4 sequence (P40763 136-705 C542A): as the sequence (P40763 136-705) above, with C407A counted along it
Procedure: as §3, §4

[1] = design: method as in doi:10.1039/P29840001851; conditions: cited from earlier work
STAT3 Cys468A = target: T5, STAT3 Cys468A (Homo sapiens, UniProt P40763, C468A); assay: AlphaScreen-based assay, STAT3 single-cysteine mutant Cys468A; type: binding; conditions: for % of control, STAT3 AlphaScreen: Cys468A
T5 construct: a truncated form of STAT3 (136-705) was constructed and chromatographically purified; made in house
T5 sequence (P40763 136-705 C468A): as the sequence (P40763 136-705) above, with C333A counted along it
Procedure: as §3, §4

STAT3 Cys687A = target: T6, STAT3 Cys687A (Homo sapiens, UniProt P40763, C687A); assay: AlphaScreen-based assay, STAT3 single-cysteine mutant Cys687A; type: binding; conditions: for % of control, STAT3 AlphaScreen: Cys687A
T6 construct: a truncated form of STAT3 (136-705) was constructed and chromatographically purified; made in house
T6 sequence (P40763 136-705 C687A): as the sequence (P40763 136-705) above, with C552A counted along it
Procedure: as §3, §4

STAT3 Cys550A = target: T7, STAT3 Cys550A (Homo sapiens, UniProt P40763, C550A); assay: AlphaScreen-based assay, STAT3 single-cysteine mutant Cys550A; type: binding; conditions: for % of control, STAT3 AlphaScreen: Cys550A
T7 construct: a truncated form of STAT3 (136-705) was constructed and chromatographically purified; made in house
T7 sequence (P40763 136-705 C550A): as the sequence (P40763 136-705) above, with C415A counted along it
Procedure: as §3, §4

Cc1cc2c(cc1C)NS(=O)(=O)N2 [Compound 1, 5,6-Dimethyl-1H,3H-2,1,3-benzothiadiazole-2,2-dioxide]
IC50 (STAT1): > 50 µM | inhibition versus Grb2 (Grb2): 23% | % of control, STAT3 AlphaScreen (STAT3 Cys712A; [1] 1 μM): 113.4 % of control | % of control, STAT3 AlphaScreen (STAT3 Cys712A; [1] 3 μM): 112.4 % of control | % of control, STAT3 AlphaScreen (STAT3 Cys712A; [1] 10 μM): 110.5 % of control | % of control, STAT3 AlphaScreen (STAT3 Cys712A; [1] 30 μM): 108.0 % of control | IC50 (STAT3 Cys712A; mutated Cys712A): > 30 µM | inhibition at 30 µM (STAT3; 30 µM, n.a.: not active, read-out: STAT3 % Inhibition (30 µM)): 96.5 ± 1.1% | IC50 (STAT3; STAT3 wild-type (WT), read-out: STAT3 inhibition: IC50): 15.8 µM | inhibition at 30 µM (STAT3; Table 1, AlphaScreen-based assay at 30 µM, STAT3-SH2 domain, read-out: % Inhibition): 96.5% | % of control, STAT3 AlphaScreen (STAT3; [1] 1 μM): 98.6 % of control | % of control, STAT3 AlphaScreen (STAT3; [1] 3 μM): 94.1 % of control | % of control, STAT3 AlphaScreen (STAT3; [1] 10 μM): 72.4 % of control | % of control, STAT3 AlphaScreen (STAT3; [1] 30 μM): 18.4 % of control | % of control, STAT3 AlphaScreen (STAT3 Cys542A; [1] 1 μM): 102.5 % of control | % of control, STAT3 AlphaScreen (STAT3 Cys542A; [1] 3 μM): 101.3 % of control | % of control, STAT3 AlphaScreen (STAT3 Cys542A; [1] 10 μM): 98.1 % of control | % of control, STAT3 AlphaScreen (STAT3 Cys542A; [1] 30 μM): 92.3 % of control | IC50 (STAT3 Cys542A; mutated Cys542A): > 30 µM | pKa [1]: 6.88 ± 0.03 | melting point: 148 °C | % of control, STAT3 AlphaScreen (STAT3 Cys468A; [1] 1 μM): 111.8 % of control | % of control, STAT3 AlphaScreen (STAT3 Cys468A; [1] 3 μM): 108.3 % of control | % of control, STAT3 AlphaScreen (STAT3 Cys468A; [1] 10 μM): 101.1 % of control | % of control, STAT3 AlphaScreen (STAT3 Cys468A; [1] 30 μM): 79.7 % of control | IC50 (STAT3 Cys468A; mutated Cys468A): > 30 µM | % of control, STAT3 AlphaScreen (STAT3 Cys687A; [1] 1 μM): 93.3 % of control | % of control, STAT3 AlphaScreen (STAT3 Cys687A; [1] 3 μM): 89.7 % of control | % of control, STAT3 AlphaScreen (STAT3 Cys687A; [1] 10 μM): 78.3 % of control | % of control, STAT3 AlphaScreen (STAT3 Cys687A; [1] 30 μM): 51.9 % of control | IC50 (STAT3 Cys687A; mutated Cys687A): > 30 µM | % of control, STAT3 AlphaScreen (STAT3 Cys550A; [1] 1 μM): 132.9 % of control | % of control, STAT3 AlphaScreen (STAT3 Cys550A; [1] 3 μM): 136.0 % of control | % of control, STAT3 AlphaScreen (STAT3 Cys550A; [1] 10 μM): 135.2 % of control | % of control, STAT3 AlphaScreen (STAT3 Cys550A; [1] 30 μM): 124.7 % of control | IC50 (STAT3 Cys550A; mutated Cys550A): > 30 µM
